From patent US20030215930A1, “Genes involved in cyclododecanone degradation pathway” (priority 2002, published 2003)

What was measured:
Rhodococcus ruber SC1 = experiment: Growth of Rhodococcus ruber SC1 on cyclic ketones as sole carbon and energy source; type: cell-based; conditions: cyclic ketone as sole carbon and energy source
Procedure: Synthetic S12 medium was used to establish enrichment. S12 medium contains the following: 10 mM ammonium sulfate, 50 mM potassium phosphate buffer (pH 7.0), 2 mM MgCl2, 0.7 mM CaCl2, 50 μM MnCl2, 1 μM FeCl3, 1 μM […], 1.72 μM CuSO4, 2.53 μM CoCl2, 2.42 μM […], and 0.0001% FeSO4. The carbon sources were added directly to the S12 medium and the bacteria were grown in sealed culture flasks.
S12 agar was used to test isolates that utilize compounds as the sole source of carbon and energy. S12 agar was prepared by adding 1.5% Noble agar (DIFCO) to S12 medium. Bacteria growing on S12 agar were supplied with volatile compounds such as cyclododecanone by sprinkling solids of the volatile compound on the interior of the petri dish lid or 5 μl of other volatile liquid as vapor. The petri dish was sealed with parafilm and incubated with the lid on the bottom.
Rhodococcus ruber SC1 isolated from cyclododecanone (C12 cyclic ketone) enrichment culture was also tested for growth on cyclic ketones of different carbon numbers as sole carbon and energy source (Table 3). It grows well on cyclopentadecanone (C15 cyclic ketone), cyclotridecanone (C13 cyclic ketone), cyclododecanone (C12 cyclic ketone) and cycloundecanone (C11 cyclic ketone).

[1] = test system: monooxygenase and esterase on the S8C; experiment: Production of different chain length hydroxy acids from cyclic ketones by recombinant E. coli cosmid clone S8C (GC/MS); type: cell-based, Escherichia coli; conditions: cyclic ketone substrate at 250 mg/L
Procedure: Transformed XL1-Blue MR cells were grown in M9 medium with 0.4% glucose as sole carbon source. Substrate for conversion was added at early log phase (OD=0.2) and cells were allowed to grow at 30° C. for 20 additional hours. Cells were then frozen and thawed once, centrifiged, and supernatant was filtered through 0.2 μm filters. Filtrate was prepared for GC/MS analysis as described below.
Filtrate was first acidified to pH 2 using concentrated HCl. The acidified sample was extracted twice with methylene chloride or ethyl acetate. The extracts were combined and dried by adding anhydrous magnesium sulfate. Magnesium sulfate was then removed by filteration using Whatman 3MM filter paper and the remaining solvent in the filtrate was evaporated under a gentle stream of nitrogen. […]
Example 8 explores whether the cyclic substrates could be expanded to cyclic ketones of different chain length and whether corresponding hydroxy acids could be produced. […] Large amount of corresponding hydroxy acids were detected from S8C grown in the presence of C11, C12 and C13 cyclic ketones. Medium level of 15-hydroxy acid was detected from C15 cyclic ketone grown cells. Small amount of hydroxy acids was detected from cells grown on C6 and C10 cyclic ketones. […]

| SMILES | Growth of Rhodococcus ruber SC1 (Rhodococcus ruber SC1) | Corresponding Hydroxy Acid Produced by E. coli Cosmids [1] |
| --- | --- | --- |
| O=C1CCCCCCCCCC1 [C11, cycloundecanone] | grows well |  |
| O=C1CCCCCCCCCCC1 [C12, cyclododecanone] | grows well |  |
| O=C1CCCCCCCCC1 [C10, cyclodecanone] | grows moderately well | Small amount |
| O=C1CCCCCCCCCCCCCC1 [C15, cyclopentadecanone] | grows well |  |
| O=C1CCCCC1 [C6, cyclohexanone] | does not grow | Small amount |
| O=C1CCCCCCC1 [C8, cyclooctanone] | does not grow |  |
| O=C1CCCCCCCCCCCC1 [C13, cyclotridecanone] | grows well |  |
| O=C1CCCCCC1 [C7, cycloheptanone] | does not grow |  |
